Reference: PubChem BioAssay AID272 (DTP/NCI, 2004)
Where “and” joins values, the source holds several entries; their conditions need not be identical. Equal entries are not always repeated. Inconclusive results are not listed.

Tested on: Lewis lung carcinoma i.m., BDF1 mice, T/C %
Assay: NCI In Vivo Anticancer Drug Screen. Data for tumor model Lewis Lung Carcinoma (intramuscular) in B6D2F1 (BDF1) mice
Outline: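 Transplantable tumour model; readout survival or tumour size; value = treated (T) / vehicle control (C).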

Structure (SMILES): Cc1c(N)nc([C@H](CC(N)=O)NC[C@H](N)C(N)=O)nc1C(=O)N[C@H](C(=O)N[C@H](C)[C@@H](O)[C@H](C)C(=O)N[C@H](C(=O)NCCc1nc(-c2nc(C(=O)NCCC[S+](C)C)cs2)cs1)[C@@H](C)O)C(OC1OC(CO)C(O)C(O)C1OC1OC(CO)C(O)C(OC(N)=O)C1O)c1cnc[nH]1 (stereo partly drawn)
- T/C (endpoint: mean tumor weight (est.), dose: 2.5 mg/kg/injection, schedule: Q01DX009 (ip), vehicle: saline, higher = larger tumour): 44 % of control
- T/C (endpoint: mean tumor weight (est.), dose: 8.4 mg/kg/injection, schedule: Q01DX009 (ip), vehicle: saline, higher = larger tumour): 24 % of control and 42 % of control
- T/C (endpoint: mean tumor weight (est.), dose: 14.0 mg/kg/injection, schedule: Q01DX009 (ip), vehicle: saline, higher = larger tumour): 27 % of control and 37 % of control
- T/C (endpoint: mean tumor weight (est.), dose: 23.0 mg/kg/injection, schedule: Q01DX009 (ip), vehicle: saline, higher = larger tumour): 14 % of control and 26 % of control
- T/C (endpoint: mean tumor weight (est.), dose: 39.0 mg/kg/injection, schedule: Q01DX009 (ip), vehicle: saline, higher = larger tumour): 12 % of control
- T/C (endpoint: mean tumor weight, dose: 3.0 mg/kg/injection, schedule: Q01DX011 (ip), vehicle: saline, higher = larger tumour): 38 % of control
- T/C (endpoint: mean tumor weight, dose: 3.75 mg/kg/injection, schedule: Q01DX011 (sc), vehicle: saline, higher = larger tumour): 60 % of control
- T/C (endpoint: mean tumor weight, dose: 4.0 mg/kg/injection, schedule: Q01DX011 (ip), vehicle: saline, higher = larger tumour): 18 % of control
- T/C (endpoint: mean tumor weight, dose: 5.0 mg/kg/injection, schedule: Q01DX011 (ip), vehicle: saline, higher = larger tumour): 12 % of control and 15 % of control
- T/C (endpoint: mean tumor weight, dose: 6.0 mg/kg/injection, schedule: Q01DX011 (ip), vehicle: saline, higher = larger tumour): 19 % of control
- T/C (endpoint: mean tumor weight, dose: 7.5 mg/kg/injection, schedule: Q01DX011 (sc), vehicle: saline, higher = larger tumour): 23 % of control
- T/C (endpoint: mean tumor weight, dose: 8.4 mg/kg/injection, schedule: Q01DX011 (ip), vehicle: saline, higher = larger tumour): 7 % of control
- T/C (endpoint: mean tumor weight, dose: 8.5 mg/kg/injection, schedule: Q01DX011 (ip), vehicle: saline, higher = larger tumour): 19 % of control
- T/C (endpoint: mean tumor weight, dose: 10.0 mg/kg/injection, schedule: Q04DX003 (ip), vehicle: saline, higher = larger tumour): 56 % of control
- T/C (endpoint: mean tumor weight, dose: 12.5 mg/kg/injection, schedule: Q04DX003 (ip), vehicle: saline, higher = larger tumour): 23 % of control
- T/C (endpoint: mean tumor weight, dose: 14.0 mg/kg/injection, schedule: Q01DX011 (ip), vehicle: saline, higher = larger tumour): 6 % of control
- T/C (endpoint: mean tumor weight, dose: 18.0 mg/kg/injection, schedule: Q04DX003 (ip), vehicle: saline, higher = larger tumour): 35 % of control
- T/C (endpoint: mean tumor weight, dose: 20.0 mg/kg/injection, schedule: Q01DX011 (ip), vehicle: saline, higher = larger tumour): 2 % of control and 12 % of control
- T/C (endpoint: mean tumor weight, dose: 20.0 mg/kg/injection, schedule: Q04DX003 (ip), vehicle: saline, higher = larger tumour): 43 % of control
- T/C (endpoint: mean tumor weight, dose: 23.0 mg/kg/injection, schedule: Q01DX011 (ip), vehicle: saline, higher = larger tumour): 5 % of control
- T/C (endpoint: mean tumor weight, dose: 23.0 mg/kg/injection, schedule: Q04DX003 (ip), vehicle: saline, higher = larger tumour): 40 % of control
- T/C (endpoint: mean tumor weight, dose: 25.0 mg/kg/injection, schedule: Q01DX001 (ip), vehicle: saline, higher = larger tumour): 51 % of control
- T/C (endpoint: mean tumor weight, dose: 25.0 mg/kg/injection, schedule: Q04DX003 (ip), vehicle: saline, higher = larger tumour): 18 % of control
- T/C (endpoint: mean tumor weight, dose: 36.0 mg/kg/injection, schedule: Q01DX001 (ip), vehicle: saline, higher = larger tumour): 65 % of control
- T/C (endpoint: mean tumor weight, dose: 36.0 mg/kg/injection, schedule: Q04DX003 (ip), vehicle: saline, higher = larger tumour): 18 % of control
- T/C (endpoint: mean tumor weight, dose: 39.0 mg/kg/injection, schedule: Q04DX003 (ip), vehicle: saline, higher = larger tumour): 19 % of control
- T/C (endpoint: mean tumor weight, dose: 40.0 mg/kg/injection, schedule: Q04DX003 (ip), vehicle: saline, higher = larger tumour): 31 % of control
- T/C (endpoint: mean tumor weight, dose: 51.0 mg/kg/injection, schedule: Q01DX001 (ip), vehicle: saline, higher = larger tumour): 35 % of control
- T/C (endpoint: median survival time, dose: 2.0 mg/kg/injection, schedule: Q01DX011 (ip), vehicle: saline, higher = longer survival): 153 % of control
- T/C (endpoint: median survival time, dose: 2.5 mg/kg/injection, schedule: Q01DX014 (ip), vehicle: saline, higher = longer survival): 113 % of control
- T/C (endpoint: median survival time, dose: 3.0 mg/kg/injection, schedule: Q01DX004 (ip), vehicle: saline, higher = longer survival): 116 % of control
- T/C (endpoint: median survival time, dose: 3.0 mg/kg/injection, schedule: Q09DX009 (ip), vehicle: saline, higher = longer survival): 119 % of control and 120 % of control
- T/C (endpoint: median survival time, dose: 3.75 mg/kg/injection, schedule: Q01DX011 (sc), vehicle: saline, higher = longer survival): 158 % of control
- T/C (endpoint: median survival time, dose: 4.0 mg/kg/injection, schedule: Q01DX011 (ip), vehicle: saline, higher = longer survival): 119 % of control
- T/C (endpoint: median survival time, dose: 5.0 mg/kg/injection, schedule: Q01DX004 (ip), vehicle: saline, higher = longer survival): 123 % of control
- T/C (endpoint: median survival time, dose: 5.0 mg/kg/injection, schedule: Q01DX009 (ip), vehicle: none, higher = longer survival): 150 % of control and 163 % of control
- T/C (endpoint: median survival time, dose: 5.0 mg/kg/injection, schedule: Q01DX011 (ip), vehicle: saline, higher = longer survival): 150 % of control
- T/C (endpoint: median survival time, dose: 5.0 mg/kg/injection, schedule: Q01DX014 (ip), vehicle: saline, higher = longer survival): 123 % of control
- T/C (endpoint: median survival time, dose: 5.0 mg/kg/injection, schedule: Q09DX009 (ip), vehicle: saline, higher = longer survival): 150 % of control
- T/C (endpoint: median survival time, dose: 6.5 mg/kg/injection, schedule: Q01DX011 (ip), vehicle: saline, higher = longer survival): 158 % of control
- T/C (endpoint: median survival time, dose: 7.5 mg/kg/injection, schedule: Q01DX011 (sc), vehicle: saline, higher = longer survival): 153 % of control
- T/C (endpoint: median survival time, dose: 8.0 mg/kg/injection, schedule: Q01DX011 (ip), vehicle: saline, higher = longer survival): 150 % of control
- T/C (endpoint: median survival time, dose: 8.4 mg/kg/injection, schedule: Q01DX004 (ip), vehicle: saline, higher = longer survival): 123 % of control
- T/C (endpoint: median survival time, dose: 8.4 mg/kg/injection, schedule: Q01DX009 (ip), vehicle: none, higher = longer survival): 113 % of control and 115 % of control
- T/C (endpoint: median survival time, dose: 8.4 mg/kg/injection, schedule: Q09DX009 (ip), vehicle: saline, higher = longer survival): 116 % of control
- T/C (endpoint: median survival time, dose: 10.0 mg/kg/injection, schedule: Q01DX011 (ip), vehicle: saline, higher = longer survival): 167 % of control
- T/C (endpoint: median survival time, dose: 10.0 mg/kg/injection, schedule: Q01DX014 (ip), vehicle: saline, higher = longer survival): 124 % of control
- T/C (endpoint: median survival time, dose: 10.0 mg/kg/injection, schedule: Q04DX003 (ip), vehicle: saline, higher = longer survival): 107 % of control and 108 % of control
- T/C (endpoint: median survival time, dose: 10.8 mg/kg/injection, schedule: Q01DX011 (ip), vehicle: saline, higher = longer survival): 166 % of control
- T/C (endpoint: median survival time, dose: 12.5 mg/kg/injection, schedule: Q04DX003 (ip), vehicle: saline, higher = longer survival): 122 % of control
- T/C (endpoint: median survival time, dose: 14.0 mg/kg/injection, schedule: Q01DX009 (ip), vehicle: none, higher = longer survival): 159 % of control
- T/C (endpoint: median survival time, dose: 14.0 mg/kg/injection, schedule: Q04DX003 (ip), vehicle: saline, higher = longer survival): 112 % of control
- T/C (endpoint: median survival time, dose: 15.0 mg/kg/injection, schedule: Q01DX011 (sc), vehicle: saline, higher = longer survival): 161 % of control
- T/C (endpoint: median survival time, dose: 16.0 mg/kg/injection, schedule: Q01DX011 (ip), vehicle: saline, higher = longer survival): 150 % of control
- T/C (endpoint: median survival time, dose: 18.0 mg/kg/injection, schedule: Q01DX011 (ip), vehicle: saline, higher = longer survival): 152 % of control and 170 % of control
- T/C (endpoint: median survival time, dose: 18.0 mg/kg/injection, schedule: Q04DX003 (ip), vehicle: saline, higher = longer survival): 124 % of control
- T/C (endpoint: median survival time, dose: 20.0 mg/kg/injection, schedule: Q01DX011 (ip), vehicle: saline, higher = longer survival): 165 % of control
- T/C (endpoint: median survival time, dose: 20.0 mg/kg/injection, schedule: Q01DX014 (ip), vehicle: saline, higher = longer survival): 75 % of control
- T/C (endpoint: median survival time, dose: 20.0 mg/kg/injection, schedule: Q04DX003 (ip), vehicle: saline, higher = longer survival): 157 % of control and 160 % of control
- T/C (endpoint: median survival time, dose: 23.0 mg/kg/injection, schedule: Q01DX009 (ip), vehicle: none, higher = longer survival): 64 % of control and 95 % of control
- T/C (endpoint: median survival time, dose: 23.0 mg/kg/injection, schedule: Q04DX003 (ip), vehicle: saline, higher = longer survival): 112 % of control
- T/C (endpoint: median survival time, dose: 23.0 mg/kg/injection, schedule: Q09DX009 (ip), vehicle: saline, higher = longer survival): 169 % of control
- T/C (endpoint: median survival time, dose: 25.0 mg/kg/injection, schedule: Q01DX001 (ip), vehicle: saline, higher = longer survival): 107 % of control
- T/C (endpoint: median survival time, dose: 30.0 mg/kg/injection, schedule: Q01DX011 (ip), vehicle: saline, higher = longer survival): 166 % of control
- T/C (endpoint: median survival time, dose: 36.0 mg/kg/injection, schedule: Q01DX001 (ip), vehicle: saline, higher = longer survival): 124 % of control
- T/C (endpoint: median survival time, dose: 39.0 mg/kg/injection, schedule: Q01DX004 (ip), vehicle: saline, higher = longer survival): 54 % of control
- T/C (endpoint: median survival time, dose: 39.0 mg/kg/injection, schedule: Q04DX003 (ip), vehicle: saline, higher = longer survival): 103 % of control and 120 % of control
- T/C (endpoint: median survival time, dose: 40.0 mg/kg/injection, schedule: Q01DX014 (ip), vehicle: saline, higher = longer survival): 48 % of control
- T/C (endpoint: median survival time, dose: 40.0 mg/kg/injection, schedule: Q04DX003 (ip), vehicle: saline, higher = longer survival): 97 % of control
- T/C (endpoint: median survival time, dose: 51.0 mg/kg/injection, schedule: Q01DX001 (ip), vehicle: saline, higher = longer survival): 122 % of control
- T/C (endpoint: median survival time, dose: 65.0 mg/kg/injection, schedule: Q04DX003 (ip), vehicle: saline, higher = longer survival): 108 % of control
- T/C (endpoint: median survival time, dose: 80.0 mg/kg/injection, schedule: Q04DX003 (ip), vehicle: saline, higher = longer survival): 60 % of control

Structure (SMILES): C[C@@H]1O[C@@H](O[C@H]2CC[C@]3(C=O)[C@H]4CC[C@]5(C)[C@@H](c6ccc(=O)oc6)CC[C@]5(O)[C@@H]4CC[C@]3(O)C2)[C@H](O)[C@H](O)[C@H]1O[C@@H]1O[C@H](CO)[C@@H](O)[C@H](O)[C@H]1O
- T/C (endpoint: mean tumor weight (est.), dose: 0.63 mg/kg/injection, schedule: Q01DX011 (ip), vehicle: saline, higher = larger tumour): 80 % of control
- T/C (endpoint: mean tumor weight (est.), dose: 1.25 mg/kg/injection, schedule: Q01DX011 (ip), vehicle: saline, higher = larger tumour): 89 % of control
- T/C (endpoint: median survival time, dose: 0.63 mg/kg/injection, schedule: Q01DX011 (ip), vehicle: saline, higher = longer survival): 108 % of control
- T/C (endpoint: median survival time, dose: 1.25 mg/kg/injection, schedule: Q01DX011 (ip), vehicle: saline, higher = longer survival): 98 % of control

Structure (SMILES): O=S(=O)(O)C(Nc1ccccc1)c1ccccc1 (stereo not drawn)
- T/C (endpoint: mean tumor weight, dose: 200.0 mg/kg/injection, schedule: Q01DX011 (ip), vehicle: water, higher = larger tumour): 79 % of control
- T/C (endpoint: mean tumor weight, dose: 400.0 mg/kg/injection, schedule: Q01DX011 (ip), vehicle: water, higher = larger tumour): 58 % of control
